Experimental data published in patent US10858365B2, “Triazolo-pyrimidine compounds and uses thereof” (Dizal (Jiangsu) Pharmaceutical Co., Ltd., priority 2018, dated 2020).

Tests used:
[1] = target: T1, hA2a (Homo sapiens (Human), UniProt P29274); experiment: Radioligand binding to hA2a membrane ([3H]-CGS21680); details: [3H]-CGS21680, 90 min at 25° C., read-out: Binding Affinity (IC50 nM) hA2a
Procedure: (§1) Binding affinity and specificities of the compounds against different subtype of human adenosine receptors (hA1, hA2A, hA2B and hA3) were characterized with cell membrane chromatography binding analysis.
(§2) The compounds at different concentrations were incubate with hA2a membrane (from PerkinElmer) and [^3H]-CGS21680 for 90 min at 25° C., meanwhile 100 μL 0.5% PEI solution was added into […]-96 GF/B filter plate for 60 min at 4° C., then […]-96 GF/B filter plate was washed twice with 50 ml wash buffer, the membrane mix was transferred into […]-96 GF/B filter plate, and the filter plate was washed 4 times before incubated at 55° C. for 10 min. At last, […] ULTIMA GOLD was added into each well, and CPM was read by TopCount.
(§3) The empty boxes in the tables below indicate data not available.

[2] = target: T2, hA1 (Homo sapiens (Human), UniProt P30542); experiment: Radioligand binding to hA1 membrane ([3H]-DPCPX); details: 50 min at 25° C., read-out: Binding Affinity (IC50 nM) hA1
Procedure: as §1
as §2, with “hA1” for “hA2a”, “[^3H]-8-Cyclopentyl-1,3-dipropylxanthine (DPCPX)” for “[^3H]-CGS21680”, “50” for “90”
as §3

[3] = target: T3, hA2b (Homo sapiens (Human), UniProt P29275); experiment: Radioligand binding to hA2b membrane ([3H]-DPCPX); details: 60 min at 27° C., read-out: Binding Affinity (IC50 nM) hA2b
Procedure: as §1
(§4) The compounds at different concentrations were incubate with hA2b membrane (from PerkinElmer) and [^3H]-DPCPX for 60 min at 27° C., and the binding reactions were stopped by rapid filtration through 0.5% BSA coated […]-96 GF/C plates using cell harvester. The filter plates were then washed three times with ice cold wash buffer, and dried at 37° C. for 120 min. At last, 50 µL of scintillation cocktail was added into each well, and CPM was read by TopCount.
as §3

[4] = target: T4, hA3 (Homo sapiens (Human), UniProt P0DMS8); experiment: Radioligand binding to hA3 membrane (AB-MECA radioligand); details: 60 min at 27° C., read-out: Binding Affinity (IC50 nM) hA3
Procedure: as §1
as §4, with “hA3” for “hA2b”, “[…]” for “[^3H]-DPCPX”, “C.,” for “C., and”, “0.50%” for “0.5%”
as §3

[5] = target: T1, hA2a; experiment: cAMP inhibition assay in hA2a/CHO cells; type: cell-based; details: adenosine stimulation, read-out: cAMP & FLIPR IC50 (nM) hA2a
Outline: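 CHO cells expressing human A2a, human A2b or mouse A2a, 5×10^3 cells/well, pre-incubated with compound 30 min at 37 °C, then stimulated with […] adenosine 30 min at 37 °C. cAMP read after 60 min room-temperature incubation with detection reagent.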

[6] = target: T3, hA2b; experiment: cAMP inhibition assay in hA2b/CHO cells; type: cell-based; details: adenosine stimulation, read-out: cAMP & FLIPR IC50 (nM) hA2b
Procedure: (§5) hA2a/CHO, hA2b/CHO and mA2a/CHO (Genscript) were plated at 5×10^3 cells/well into 384-well polystyrene plates at the day of experiment. Compounds were pre-incubated with cells for 30 min at 37° C., 5% CO2. Then […] adenosine was added to the cells and incubated for 30 min at 37° C., 5% CO2. Detection reagent (CISBIO) was added and the plates were incubated for 60 min at room temperature. The signal was captured by Envision.

[7] = target: mA2a (Mus musculus (Mouse), UniProt Q60613); experiment: cAMP inhibition assay in mA2a/CHO cells; type: cell-based; details: adenosine stimulation, read-out: cAMP & FLIPR IC50 (nM) mA2a
Procedure: as §5

[8] = target: T2, hA1; experiment: FLIPR inhibition assay in hADORA1/CHO (hA1 expressing) cells; type: cell-based; details: hADORA1/CHO cells, FLIPR calcium, adenosine stimulation; read-out: cAMP & FLIPR IC50 (nM) hA1
Outline: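 CHO cells expressing human A1 were plated at 1×10^4 cells/well the day before, then loaded with FLIPR Calcium 5 dye for 60 min at 37 °C, 5% CO2. Compounds were added at several concentrations for 400 s before stimulation with […] adenosine. The calcium signal was recorded by FLIPR.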

[9] = target: T4, hA3; experiment: cAMP & FLIPR inhibition, hA3 over-expressing cell line; type: cell-based
Excerpt: FLIPR™ and cAMP inhibition activities of exemplary compounds in different adenosine receptor over-expressing cell lines are shown in Table 4 below.

T3 sequence (P29275 whole entry): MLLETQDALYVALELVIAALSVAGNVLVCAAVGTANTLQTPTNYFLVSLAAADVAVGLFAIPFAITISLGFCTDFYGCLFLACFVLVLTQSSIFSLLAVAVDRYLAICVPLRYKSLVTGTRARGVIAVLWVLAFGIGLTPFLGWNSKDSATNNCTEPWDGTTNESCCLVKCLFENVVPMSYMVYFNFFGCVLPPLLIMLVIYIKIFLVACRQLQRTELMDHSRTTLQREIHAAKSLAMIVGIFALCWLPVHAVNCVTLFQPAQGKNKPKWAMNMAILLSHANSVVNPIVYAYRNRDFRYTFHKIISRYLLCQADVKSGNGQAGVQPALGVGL
T2 sequence (P30542 whole entry): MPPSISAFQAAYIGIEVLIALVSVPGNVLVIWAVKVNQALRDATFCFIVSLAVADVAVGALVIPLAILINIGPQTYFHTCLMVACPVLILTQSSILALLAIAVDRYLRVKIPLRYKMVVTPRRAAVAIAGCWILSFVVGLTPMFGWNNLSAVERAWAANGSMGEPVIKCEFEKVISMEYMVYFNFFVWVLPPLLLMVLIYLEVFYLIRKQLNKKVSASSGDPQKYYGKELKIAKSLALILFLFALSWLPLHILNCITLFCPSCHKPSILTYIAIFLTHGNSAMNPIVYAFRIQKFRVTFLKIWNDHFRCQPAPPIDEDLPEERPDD
T1 sequence (P29274 whole entry): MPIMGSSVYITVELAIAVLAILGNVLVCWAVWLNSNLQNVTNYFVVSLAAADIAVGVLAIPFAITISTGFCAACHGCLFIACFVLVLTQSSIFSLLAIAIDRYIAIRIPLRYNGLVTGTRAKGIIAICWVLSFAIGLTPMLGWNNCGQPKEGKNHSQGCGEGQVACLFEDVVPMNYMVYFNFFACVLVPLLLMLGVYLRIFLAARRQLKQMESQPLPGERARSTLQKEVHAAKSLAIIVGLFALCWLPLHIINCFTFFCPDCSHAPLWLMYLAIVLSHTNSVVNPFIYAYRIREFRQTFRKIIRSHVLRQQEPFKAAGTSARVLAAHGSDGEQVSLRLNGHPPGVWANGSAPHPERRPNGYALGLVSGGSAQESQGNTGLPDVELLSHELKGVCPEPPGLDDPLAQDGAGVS
mA2a, sequence (Q60613 whole entry): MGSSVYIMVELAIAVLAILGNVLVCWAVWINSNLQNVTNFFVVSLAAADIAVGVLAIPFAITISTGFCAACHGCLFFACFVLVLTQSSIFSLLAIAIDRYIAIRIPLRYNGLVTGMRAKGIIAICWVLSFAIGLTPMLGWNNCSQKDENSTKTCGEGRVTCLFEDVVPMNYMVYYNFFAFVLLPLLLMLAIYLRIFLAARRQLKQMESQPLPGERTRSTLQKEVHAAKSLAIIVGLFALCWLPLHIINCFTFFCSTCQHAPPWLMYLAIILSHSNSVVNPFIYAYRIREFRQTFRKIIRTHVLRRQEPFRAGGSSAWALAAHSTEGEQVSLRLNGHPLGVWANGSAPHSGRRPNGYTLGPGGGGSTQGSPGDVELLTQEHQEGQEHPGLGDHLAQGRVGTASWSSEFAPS
T4 sequence (P0DMS8 whole entry): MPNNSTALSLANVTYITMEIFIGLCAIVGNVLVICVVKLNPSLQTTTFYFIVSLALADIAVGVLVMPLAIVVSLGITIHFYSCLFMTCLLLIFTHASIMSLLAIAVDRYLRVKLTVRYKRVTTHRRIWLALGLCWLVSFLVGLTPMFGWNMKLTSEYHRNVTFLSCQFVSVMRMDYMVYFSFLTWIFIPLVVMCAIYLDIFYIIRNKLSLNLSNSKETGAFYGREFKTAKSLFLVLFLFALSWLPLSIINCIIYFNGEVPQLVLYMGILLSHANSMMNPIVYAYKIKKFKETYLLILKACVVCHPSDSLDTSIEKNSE

SMILES | IC50 [1] [nM] | IC50 [2] [nM] | IC50 [3] [nM] | IC50 [4] [nM] | IC50 [5] [nM] | IC50 [6] [nM] | IC50 [7] [nM] | IC50 [8] [nM] | IC50 [9] [nM]
Cn1cc(-c2c(-c3ccc(F)cc3)nc(N)n3nc(Cc4ncccc4F)nc23)ccc1=O [Example 1, 5-(5-amino-7-(4-fluorophenyl)-2-((3-fluoropyridin-2-yl)methyl)-[1,2,4]triazolo[1,5-c]pyrimidin-8-yl)-1-methylpyridin-2(1H)-one] | 2.3 | 1.1 | 2.3 | 2870 | 4.7 | 117 | 10 | 8.5 | > 10000
Cn1cc(-c2c(-c3ccc(F)cc3)nc(N)n3nc(Cc4c(F)cccc4F)nc23)ccc1=O [Example 9, 5-(5-amino-2-(2,6-difluorobenzyl)-7-(4-fluorophenyl)-[1,2,4]triazolo[1,5-c]pyrimidin-8-yl)-l-methylpyridin-2(1H)-one] | 2.1 | 0.2 |  |  | 0.6 | 56 | 0.8 | 20 | > 10000
CN(C)c1cc(-c2c(-c3ccc(F)cc3)nc(N)n3nc(Cc4c(F)cccc4F)nc23)ccn1 [Example 10, 2-(2,6-difluorobenzyl)-8-(2-(dimethylamino)pyridin-4-yl)-7-(4-fluorophenyl)-[l,2,4]triazolo [l,5-c]pyrmidin-5-amine] | 0.9 | 2.3 | 0.1 | 4770 | 0.2 | 4.4 | 0.4 | 42 | > 10000
Cc1cc(-c2c(-c3ccc(F)cc3)nc(N)n3nc(Cc4ncccc4F)nc23)cc(C)n1 [Example 14] |  |  |  |  | 6.9 | 2240 | 18 | 97 | > 10000
Cc1cc(-c2c(-c3ccc(F)cc3)nc(N)n3nc(Cc4ncccc4F)nc23)cc(Cl)n1 [Example 18, 8-(2-chloro-6-methylpyridin-4-yl)-7-(4-fluorophenyl)-2-((3-fluoropyridin-2-yl)methyl)-[l,2,4]triazolo[1,5-c]pyrimidin-5-amine] |  |  |  |  | 1.2 | 511 | 9.6 | 49 | > 10000
Cc1cc(-c2c(-c3ccc(F)cc3)nc(N)n3nc(Cc4cccc(C#N)n4)nc23)ccn1 [Example 19, 6-((5-amino-7-(4-fluorophenyl)-8-(2-methylpyridin-4-yl)-[1,2,4]triazolo[1,5-f]pyrimidin-2-yl)methyl)picolinonitrile] |  |  |  |  | 102 | 303 | 88 | 23 | > 10000
Cn1cc(-c2c(-c3ccc(F)cc3)nc(N)n3nc(Cc4ncccc4OC(F)F)nc23)ccc1=O [Example 20, 5-(5-amino-2-[[3-(difluoromethoxy)pyridin-2-yl]methyl]-7-(4-fluorophenyl)-[1,2,4]triazolo[1,5-c]pyrimidin-8-yl)-1-methyl-1,2-dihydropyridin-2-one] | 2.8 | 4 | 8.7 | 1070 | 3.5 | 84 | 4.9 | 34 | > 10000
Cn1cc(-c2c(-c3ncco3)nc(N)n3nc(Cc4ncccc4F)nc23)ccc1=O [Example 21, 5-(5-amino-2-((3-fluoropyridin-2-yl)methyl)-7-(oxazol-2-yl)-[1,2,4]triazolo[1,5-c]pyrimidin-8-yl)-1-methylpyridin-2(1H)-one] | 20 | 43 |  |  | 36 | 270 | 41 | 113 | > 10000
CCn1cc(-c2c(-c3ccc(F)cc3)nc(N)n3nc(Cc4ncccc4F)nc23)ccc1=O [Example 34, 5-(5-amino-7-(4-fluorophenyl)-2-((3-fluoropyridin-2-yl)methyl)-[1,2,4]triazolo[1,5-c]pyrimidin-8-yl)-1-ethylpyridin-2(1H)-one] | 2.8 | 0.8 | 0.4 | 10000 | 2.1 | 58 | 3.4 | 12 | 
CC(C)n1cc(-c2c(-c3ccc(F)cc3)nc(N)n3nc(Cc4ncccc4F)nc23)ccc1=O [Example 55, 5-(5-amino-7-(4-fluorophenyl)-2-((3-fluoropyridin-2-yl)methyl)-[1,2,4]triazolo[1,5-c]pyrimidin-8-yl)-1-isopropylpyridin-2(1H)-one] | 4 | 0.1 | 2.8 | 7290 | 0.7 | 101 | 0.8 | 13 | 
